# Experiment: Stability of the peptide in solution (storage, handling, assays)
# Settings: qualitative, relative to Met31-containing pediocin PA-1 3c
smiles,measurement,value
CC[C@H](C)[C@H](NC(=O)[C@H](CS)NC(=O)[C@@H](NC(=O)[C@@H](NC(=O)[C@H](C)NC(=O)[C@H](CCCCN)NC(=O)CNC(=O)[C@H](Cc1c[nH]c2ccccc12)NC(=O)[C@H](CC(=O)O)NC(=O)[C@@H](NC(=O)[C@H](CO)NC(=O)[C@H](CS)NC(=O)[C@H](CO)NC(=O)[C@H](Cc1c[nH]cn1)NC(=O)[C@H](CCCCN)NC(=O)CNC(=O)[C@H](CS)NC(=O)[C@@H](NC(=O)[C@@H](NC(=O)CNC(=O)[C@H](CC(N)=O)NC(=O)CNC(=O)[C@H](Cc1ccc(O)cc1)NC(=O)[C@H](Cc1ccc(O)cc1)NC(=O)[C@@H](N)CCCCN)C(C)C)[C@@H](C)O)C(C)C)[C@@H](C)O)[C@@H](C)O)C(=O)N[C@H](C(=O)N[C@@H](CC(N)=O)C(=O)N[C@@H](CC(N)=O)C(=O)NCC(=O)N[C@@H](C)C(=O)N[C@@H](CC(C)C)C(=O)N[C@@H](C)C(=O)N[C@@H](Cc1c[nH]c2ccccc12)C(=O)N[C@@H](C)C(=O)N[C@H](C(=O)NCC(=O)NCC(=O)N[C@@H](Cc1c[nH]cn1)C(=O)N[C@@H](CCC(N)=O)C(=O)NCC(=O)N[C@@H](CC(N)=O)C(=O)N[C@@H](Cc1c[nH]cn1)C(=O)N[C@@H](CCCCN)C(=O)N[C@@H](CS)C(=O)O)[C@@H](C)O)[C@@H](C)CC [compound 4],"molecular stability / stability in solution during storage, handling and assays",significantly greater

# From paper PMC5998028, “Synthesis, antimicrobial activity and conformational analysis of the class IIa bacteriocin pediocin PA-1 and analogs thereof” (Scientific Reports, 2018)
